In US10201533B2, “Substituted quinolizine derivatives useful as HIV integrase inhibitors” (priority 2013, dated 2019):
Read-outs that look alike come from different tables or passages of the source.

Test system: HIV-1 (NL4-3 strain)
Assay: microbe, parasite or virus in culture
Type: cell-based
Details: MT4-GFP cells infected with HIV-1 NL4-3, IP or IC50 from 4-parameter dose response curve
[1] = 100% normal human serum (NHS), read-out: WILD TYPE CELL ASSAY Viking IP (100% NHS)
[2] = Human immunodeficiency virus 1, NL43, 0% normal human serum (NHS), read-out: WILD TYPE CELL ASSAY Viking IP (0% NHS)

**Q.** How did the IC50 (0% normal human serum (NHS), read-out: WILD TYPE CELL ASSAY Viking IP (0% NHS)) turn out when `C[C@]12CCCCO[C@@H]1Cn1cc(C(=O)NCc3cccc(Cl)c3F)c(=O)c(O)c1C2=O` (single isomer, unassigned) [Compound 46] was run?
**A.** The IC50 was 1.3 nM.

**Q.** What about the IC50 [1] of the same molecule?
**A.** The IC50 was 459 nM.

**Q.** For `COC12CCCC1(C)C(=O)c1c(O)c(=O)c(C(=O)NCc3ccc(F)cc3)cn1C2` (stereo not drawn) [Compound 106], which IC50 [2] is on record?
**A.** Its IC50 is 3.3 nM.

**Q.** And the IC50 (Human immunodeficiency virus 1, NL43, 100% normal human serum (NHS), read-out: WILD TYPE CELL ASSAY Viking IP (100% NHS))?
**A.** Its IC50 is 3340 nM.

**Q.** `COCCC[C@@]1(C)C(=O)c2c(O)c(=O)c(C(=O)NCc3cccc(Cl)c3F)cn2C[C@@H]1OC` [Compound 80] was tested. Which IC50 [1] did it give?
**A.** The IC50 was 101 nM.

**Q.** What about the IC50 [2] of the same molecule?
**A.** Its IC50 is 1.1 nM.
